Measured values taken from US9227935B2, “Piperidine/piperazine derivatives” (Janssen Pharmaceutica N.V., priority 2007, dated 2016).

How the values were obtained:
human DGAT1 = molecular target: T1, human DGAT1 (Homo sapiens, UniProt O75907); assay: DGAT1 FlashPlate inhibition assay with DGAT1 membrane preparations; format: biochemical; conditions: IC50 values expressed in M; pIC50 = -logIC50; inhibition of DGAT1 activity
T1 construct: FLAG (N); made in house; host or cells: SF9 insect cells (baculovirus, pFastBac); total cell membranes used as the enzyme source
T1 sequence (O75907 1-488): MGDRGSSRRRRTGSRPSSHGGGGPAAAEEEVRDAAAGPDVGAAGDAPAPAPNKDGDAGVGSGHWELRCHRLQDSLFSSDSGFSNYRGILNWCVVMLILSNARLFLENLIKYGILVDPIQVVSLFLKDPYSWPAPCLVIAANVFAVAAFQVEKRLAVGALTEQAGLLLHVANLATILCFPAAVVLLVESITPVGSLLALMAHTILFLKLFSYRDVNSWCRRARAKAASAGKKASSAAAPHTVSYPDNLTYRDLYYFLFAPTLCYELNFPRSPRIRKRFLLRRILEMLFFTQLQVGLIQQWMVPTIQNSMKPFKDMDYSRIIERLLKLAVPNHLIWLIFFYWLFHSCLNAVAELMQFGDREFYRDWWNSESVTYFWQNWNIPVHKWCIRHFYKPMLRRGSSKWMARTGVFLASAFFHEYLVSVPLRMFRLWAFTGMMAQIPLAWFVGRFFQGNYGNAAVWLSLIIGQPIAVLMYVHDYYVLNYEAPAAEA
Procedure, shortened: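 Membranes from Sf9 cells expressing N-FLAG human DGAT1 were incubated 120 min at 37 °C with 50 μM DAG in PC/PS micelles and 8.4 μM [3H]-oleoylCoA in Tris pH 7.4, MgCl2, EDTA and 0.2% BSA. The reaction was stopped with N-ethylmaleimide, and triacylglycerol was read by FlashPlate radioluminescence and normalised to enzyme and no-enzyme controls.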

Structure (SMILES)	IC50 (human DGAT1)	melting point
O=C(Nc1ccc(N2CCN(C(=S)Nc3c(Cl)cccc3Cl)CC2)cc1)c1ccccc1-c1ccc(C(F)(F)F)cc1 [Compound 8]	214 nM	224.5 °C
O=C(Nc1ccc(N2CCN(C(=O)Nc3c(Cl)cccc3Cl)CC2)cc1)c1ccccc1-c1ccc(C(F)(F)F)cc1 [Compound 9]	30.2 nM	289 °C
O=C(Nc1cccc(N2CCCC2)c1)c1ccc(N2CCN(C(=O)Cc3c(Cl)cccc3Cl)CC2)cc1 [Compound 131]	30.9 nM	–
O=C(O)Cc1cccc(C(=O)Nc2ccc(N3CCN(C(=O)Nc4c(Cl)cc(CN5CCCCC5)cc4Cl)CC3)cc2)c1 [Compound 143]	3310 nM	–
COC(=O)c1cccc(C(=O)Nc2ccc(N3CCN(C(=O)Cc4c(Cl)cc(CN5CCCC5)cc4Cl)CC3)cc2)c1 [Compound 145]	112 nM	–
O=C(O)c1cccc(C(=O)Nc2ccc(N3CCN(C(=O)Cc4c(Cl)cc(CN5CCCC5)cc4Cl)CC3)cc2)c1 [Compound 146]	3390 nM	–

These reach a lower IC50 (human DGAT1). Values come first.

IC50 (human DGAT1)	melting point	Structure (SMILES)
12.6 nM	247.52 °C	COC(=O)c1cccc(C(=O)Nc2ccc(N3CCN(C(=O)Nc4c(Cl)cc(CN5CCCC5)cc4Cl)CC3)cc2)c1 [Compound 140]
11.5 nM	–	CCOC(=O)Cc1cccc(C(=O)Nc2ccc(N3CCN(C(=O)Nc4c(Cl)cc(CN5CCCCC5)cc4Cl)CC3)cc2)c1 [Compound 138]
7.24 nM	–	O=C(Nc1cccc(N2CCCC2)c1)c1ccc(N2CCN(C(=O)Nc3c(Cl)cc(CN4CCCC4)cc3Cl)CC2)cc1 [Compound 130]
6.46 nM	212.69 °C	O=C(Nc1ccc(N2CCN(C(=O)Oc3c(Cl)cccc3Cl)CC2)cc1)c1cccc(N2CCCC2)c1 [Compound 139]
5.37 nM	–	O=C(Nc1cccc(N2CCCC2)c1)c1ccc(N2CCN(C(=O)Nc3c(Cl)cc(CCN4CCCC4)cc3Cl)CC2)cc1 [Compound 129]
4.17 nM	270.85 °C	CC(C)N(Cc1cc(Cl)c(NC(=O)N2CCN(c3ccc(NC(=O)c4cccc(N5CCCC5)c4)cc3)CC2)c(Cl)c1)C(C)C [Compound 137]
1.82 nM	254.77 °C	CN1CCN(C(=O)Cc2cc(Cl)c(NC(=O)N3CCN(c4ccc(NC(=O)c5cccc(N6CCCC6)c5)cc4)CC3)c(Cl)c2)CC1 [Compound 136]
